Assay results taken from publication PMC6287396, “Hyperactivation of Oncogenic JAK3 Mutants Depend on ATP Binding to the Pseudokinase Domain” (Frontiers in Oncology, 2018).
Values belong to the compound of their own block, whether it stands above or below them.

Legend:
JAK3 JH2 [1] = target: T1, JAK3 JH2 (Homo sapiens, UniProt P52333); assay: MANT-ATP binding assay (steady-state FRET)
T1 construct: JAK3 JH2 (residues 511–790) was cloned into the pFASTBAC1 vector (Invitrogen) with a C-terminal His6 tag; His6 (C); made in house; host or cells: Spodoptera frugiperda (Sf9) insect cells, baculovirus (pFASTBAC1)
T1 sequence (P52333 511-790): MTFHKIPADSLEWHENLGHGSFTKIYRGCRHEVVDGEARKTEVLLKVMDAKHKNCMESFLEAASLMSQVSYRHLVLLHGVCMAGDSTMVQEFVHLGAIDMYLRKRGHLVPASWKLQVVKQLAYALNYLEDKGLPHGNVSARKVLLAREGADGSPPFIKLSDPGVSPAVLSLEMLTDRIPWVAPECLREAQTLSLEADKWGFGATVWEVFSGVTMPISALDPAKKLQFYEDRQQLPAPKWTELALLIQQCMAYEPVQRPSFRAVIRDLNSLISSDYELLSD
Procedure: The steady-state fluorescence of MANT-labeled ATP was measured as described in Mysore et al. ([34]). Briefly, the fluorescently labeled MANT (2′/3′-(N-methyl-anthraniloyl)-ATP was titrated against 1.5 μM recombinant JAK3 JH2. In addition, the protein was titrated as 0, 0.05, 0.25, 1.25, and […] against 0.25 μM MANT-ATP. FRET signal was measured with QuantaMaster PTI Fluorometer and the data was analyzed using GraphPad Prism version 5.02 and Microsoft Excel. Protein titrations were done in duplicate and in MANT-ATP titration in triplicate.

JAK2 JH2 [2] = target: T2, JAK2 JH2; design: method as in PMID 25825724; settings: JAK2 JH2, with MgCl2; read-out: Kd (MANT-ATP); cited from earlier work
T2 construct: JAK2 JH2 503-827-His; His (C)

JAK1 JH2 [3] = target: T3, JAK1 JH2; design: method as in PMID 25825724; settings: JAK1 JH2, with MgCl2; read-out: Kd (MANT-ATP); cited from earlier work
T3 construct: Recombinant JAK1 JH2 553-836-His; His (C)

TYK2 JH2 [4] = target: T4, TYK2 JH2; design: method as in PMID 26359499; settings: TYK2 JH2, with MgCl2; read-out: Kd (MANT-ATP); cited from earlier work
T4 construct: TYK2 JH2 564-876-His proteins; His (C)

JAK3 JH2 [5] = target: T1, JAK3 JH2; assay: Differential scanning fluorimetry (thermal shift); assay type: binding; settings: for Effect of nucleotide on Tm (ΔTm): JAK3 JH2, nucleotide titration 0.2, 0.5, 1 mM
Procedure: (§1) Protein concentration of 3 μM was used for the measurement of the melting temperature (Tm). Reactions were done in the buffer used in the SEC. Addition of other components (ATP, salts) were taken into account by including 2X buffer, if needed. Signal arising from the fluorescent dye Life Technologies SYPRO^TM Orange Protein Gel Stain, 4X working solution from 5000X concentrate in DMSO) was measured with a conventional Real-Time PCR system (Bio-Rad CFX), 1°C per min from 4 to 96°C. Results were transferred and normalized in Microsoft Excel and the Tm was derived from the sigmoidal function using GraphPad Prism version 5.02 for Windows, GraphPad Software, La Jolla California USA, https://www.graphpad.com/.

JAK1 JH2 553-836-His = target: T5, JAK1 JH2 553-836-His (Homo sapiens, UniProt P23458); assay: Fluorescence polarization competition assay (ATP vs Bodipy FL JNJ-7706621 tracer); assay type: binding; settings: JAK1 JH2, ATP competing with tracer, with MgCl2
T5 construct: Recombinant JAK1 JH2 553-836-His; His (C)
Procedure: (§2) Fluorescence polarization measurements were performed in black 384-well plates (ProxiPlate-384 F Plus, PerkinElmer) at sample volume of 5 μl/well on PerkinElmer Envision plate reader using 480 nm excitation and 535 nm emission filters. Fluorescent tracer, Bodipy FL labeled JNJ-7706621 [compound 5 in ([35])] was used at 1.5 nM concentration. Recombinant JAK1 JH2 553-836-His, JAK2 JH2 503-827-His, JAK3 JH2 511-790-His, and TYK2 JH2 564-876-His proteins were used at concentrations (2 nM JAK1, 150 nM JAK2, 1 μM JAK3, 20 nM TYK2) dependent on protein-tracer dissociation constants. The assays were performed in a buffer consisting of 20 mM Tris-HCl pH 8.0, 150 mM NaCl, 20% glycerol, 0.01% Brij-35, and 2 mM DTT. ATP was titrated at concentration range of 5 nM−5 μM and fluorescence polarization values obtained were fitted against log[ATP] in GraphPad Prism to yield IC50 values. Assays were performed in triplicate.

JAK2 JH2 503-827-His = target: T6, JAK2 JH2 503-827-His (Homo sapiens, UniProt O60674); assay: as above; assay type: binding; settings: JAK2 JH2, ATP competing with tracer, with MgCl2
T6 construct: JAK2 JH2 503-827-His; His (C)
Procedure: as §2

JAK3 JH2 511-790-His = target: T7, JAK3 JH2 511-790-His (Homo sapiens, UniProt P52333); assay: as above; assay type: binding; settings: JAK3 JH2, ATP competing with tracer, no MgCl2 added
T7 construct: JAK3 JH2 (residues 511–790) was cloned into the pFASTBAC1 vector (Invitrogen) with a C-terminal His6 tag; His6 (C); made in house; host or cells: Spodoptera frugiperda (Sf9) insect cells, baculovirus (pFASTBAC1)
T7 sequence (P52333 511-790): T1 sequence (P52333 511-790)
Procedure: as §2

TYK2 JH2 564-876-His = target: T8, TYK2 JH2 564-876-His (Homo sapiens, UniProt P29597); assay: as above; assay type: binding; settings: TYK2 JH2, ATP competing with tracer, with MgCl2
T8 construct: TYK2 JH2 564-876-His proteins; His (C)
Procedure: as §2

JAK1 JH2 [6] = test system: T3, JAK1 JH2; assay: Differential scanning fluorimetry (thermal shift); assay type: binding; settings: JAK1 JH2, 1 mM ATP
Procedure: as §1

JAK2 JH2 [7] = test system: T2, JAK2 JH2; assay: Differential scanning fluorimetry (thermal shift); assay type: binding
Procedure: as §1

TYK2 JH2 [8] = test system: T4, TYK2 JH2; assay: Differential scanning fluorimetry (thermal shift); assay type: binding
Procedure: as §1

T6 sequence (O60674 503-827): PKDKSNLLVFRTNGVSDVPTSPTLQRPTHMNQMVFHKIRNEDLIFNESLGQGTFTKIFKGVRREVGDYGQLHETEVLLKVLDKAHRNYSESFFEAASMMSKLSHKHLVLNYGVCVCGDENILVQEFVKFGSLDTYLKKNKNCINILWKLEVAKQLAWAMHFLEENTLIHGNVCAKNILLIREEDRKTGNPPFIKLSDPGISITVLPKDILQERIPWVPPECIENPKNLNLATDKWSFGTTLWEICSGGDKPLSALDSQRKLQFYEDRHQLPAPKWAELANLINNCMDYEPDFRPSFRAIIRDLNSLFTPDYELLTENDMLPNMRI
T5 sequence (P23458 553-836): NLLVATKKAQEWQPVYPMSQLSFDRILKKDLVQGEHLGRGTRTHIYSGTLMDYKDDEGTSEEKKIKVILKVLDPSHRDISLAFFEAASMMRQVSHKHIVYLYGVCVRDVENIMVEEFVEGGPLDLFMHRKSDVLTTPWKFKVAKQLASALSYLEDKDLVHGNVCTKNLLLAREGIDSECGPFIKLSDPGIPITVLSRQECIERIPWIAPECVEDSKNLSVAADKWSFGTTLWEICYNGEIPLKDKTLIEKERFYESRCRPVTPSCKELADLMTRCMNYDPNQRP
T8 sequence (P29597 564-876): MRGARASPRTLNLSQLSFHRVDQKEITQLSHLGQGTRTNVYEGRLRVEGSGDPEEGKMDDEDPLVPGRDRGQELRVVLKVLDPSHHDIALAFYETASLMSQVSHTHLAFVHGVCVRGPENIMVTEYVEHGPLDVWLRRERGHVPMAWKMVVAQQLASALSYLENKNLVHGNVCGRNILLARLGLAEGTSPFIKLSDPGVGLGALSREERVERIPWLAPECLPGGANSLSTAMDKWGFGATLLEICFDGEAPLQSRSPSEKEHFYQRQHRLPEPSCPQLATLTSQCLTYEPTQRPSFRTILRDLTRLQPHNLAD

fold tighter MANT-ATP binding of JAK3 JH2 compared to JAK1 JH2 (JAK3 JH2 [1]; JAK3 JH2 vs JAK1 JH2): 6 fold
fold tighter MANT-ATP binding of JAK3 JH2 compared to JAK2 JH2 (JAK3 JH2 [1]; JAK3 JH2 vs JAK2 JH2): 3 fold
fold tighter MANT-ATP binding of JAK3 JH2 compared to TYK2 JH2 (JAK3 JH2 [1]; JAK3 JH2 vs TYK2 JH2): 30 fold
Compound: 2′/3′-(N-methyl-anthraniloyl)-ATP [MANT-ATP]
Kd (JAK2 JH2 [2]): 1.3 µM
Kd (JAK1 JH2 [3]): 3.1 µM
Kd (TYK2 JH2 [4]): 15 µM

Compound: Nc1ncnc2c1ncn2[C@@H]1O[C@H](COP(=O)(O)OP(=O)(O)O)[C@@H](O)[C@H]1O [ADP]
Effect of nucleotide on Tm (ΔTm) (JAK3 JH2 [5]): significantly reduced ΔTm compared to ATP

Effect of nucleotide on Tm (ΔTm) (JAK3 JH2 [5]): no effect on Tm
Compound: Nc1ncnc2c1ncn2[C@@H]1O[C@H](COP(=O)(O)O)[C@@H](O)[C@H]1O [AMP]

IC50 (JAK1 JH2 553-836-His): 110 µM
IC50 (JAK2 JH2 503-827-His): 102 µM
IC50 (JAK3 JH2 511-790-His): 16 µM
IC50 (TYK2 JH2 564-876-His): 471 µM
Kd (JAK3 JH2 [5]; 50 nM−1 mM ATP titrated to 3 μM JAK3 JH2, read-out: Kd approximated with DSF): 40.4 ± 97.1 µM
ΔTm (JAK3 JH2 [5]; JAK3 JH2, 0.2 mM ATP): 8 °C
TmATP (JAK3 JH2 [5]; melting temperature of JAK3 JH2 with ATP): 41 °C
Compound: Nc1ncnc2c1ncn2[C@@H]1O[C@H](COP(=O)(O)OP(=O)(O)OP(=O)(O)O)[C@@H](O)[C@H]1O [ATP]
ΔTm (1 mM ATP) (JAK1 JH2 [6]): 3.9 °C
ΔTm (1 mM ATP) (JAK2 JH2 [7]; JAK2 JH2, 1 mM ATP): 4.9 °C
TmATP (JAK2 JH2 [7]; melting temperature of JAK2 JH2 with ATP): 46 °C
ΔTm (1 mM ATP) (TYK2 JH2 [8]; TYK2 JH2, 1 mM ATP): 0.9 °C
TmATP (TYK2 JH2 [8]; melting temperature of TYK2 JH2 with ATP): 48 °C
